The values below come from publication PMC10004634 (PLOS ONE, 2023).

SMILES strings stand for the structures. Read-outs that look alike come from different tables or passages of the source.

Targets include CDKL3 (Homo sapiens, UniProt Q8IVW4); CLK2 (Homo sapiens, UniProt P49760); PDGFRA (Homo sapiens, UniProt P16234); HIPK3 (Homo sapiens, UniProt Q9H422); RET(M918T) (Homo sapiens, UniProt P07949, M918T); EGFR (Homo sapiens, UniProt P00533).
Holding throughout (assay): biochemical
Common to all, as to parameters: KINOMEscan scanMAX competition binding, DNA-tagged kinases, qPCR read-out, percent control at 300 nM
For orientation: Real-time PCR tracks product formation cycle by cycle.

Test [1] concerns the target T1, RSK4(Kin.Dom.2-C-terminal) (Homo sapiens, UniProt Q9UK32).
T1 construct: gene RPS6KA6; Kin.Dom.2-C-terminal

The next test has as its target T2, IKK-epsilon (Homo sapiens, UniProt Q14164).
T2 construct: gene IKBKE
T2 sequence (Q14164 1-716): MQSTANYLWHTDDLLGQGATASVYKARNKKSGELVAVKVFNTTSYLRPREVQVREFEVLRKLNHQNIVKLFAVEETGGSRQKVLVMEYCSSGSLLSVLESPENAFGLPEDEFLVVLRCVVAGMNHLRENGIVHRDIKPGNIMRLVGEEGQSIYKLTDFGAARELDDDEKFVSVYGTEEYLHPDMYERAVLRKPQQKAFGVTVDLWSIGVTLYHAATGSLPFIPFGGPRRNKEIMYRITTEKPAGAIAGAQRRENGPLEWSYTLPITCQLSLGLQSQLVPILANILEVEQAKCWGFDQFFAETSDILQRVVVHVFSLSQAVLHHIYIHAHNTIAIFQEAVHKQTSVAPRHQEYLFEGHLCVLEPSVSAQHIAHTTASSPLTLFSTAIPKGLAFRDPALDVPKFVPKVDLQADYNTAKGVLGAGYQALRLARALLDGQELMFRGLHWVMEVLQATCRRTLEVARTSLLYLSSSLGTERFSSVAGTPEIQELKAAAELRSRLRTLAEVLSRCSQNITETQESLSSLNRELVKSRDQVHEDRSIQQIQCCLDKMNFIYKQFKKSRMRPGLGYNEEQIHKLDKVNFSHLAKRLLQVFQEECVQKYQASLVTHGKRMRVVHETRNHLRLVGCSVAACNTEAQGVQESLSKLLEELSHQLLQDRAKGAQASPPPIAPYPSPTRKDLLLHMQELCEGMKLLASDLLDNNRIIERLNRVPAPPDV

A further test has as its target T3, TRKA (Homo sapiens, UniProt P04629).
T3 construct: gene NTRK1

Test [2] has as its target T4, ABL1(H396P)-phosphorylated (Homo sapiens, UniProt P00519, H396P).
T4 construct: phosphorylated

Test [3] has as its target T5, ABL1(F317I)-nonphosphorylated (Homo sapiens, UniProt P00519, F317I).
T5 construct: nonphosphorylated

For the next test, the target named is T6, DDR2 (Homo sapiens, UniProt Q16832).
T6 sequence (Q16832 1-855): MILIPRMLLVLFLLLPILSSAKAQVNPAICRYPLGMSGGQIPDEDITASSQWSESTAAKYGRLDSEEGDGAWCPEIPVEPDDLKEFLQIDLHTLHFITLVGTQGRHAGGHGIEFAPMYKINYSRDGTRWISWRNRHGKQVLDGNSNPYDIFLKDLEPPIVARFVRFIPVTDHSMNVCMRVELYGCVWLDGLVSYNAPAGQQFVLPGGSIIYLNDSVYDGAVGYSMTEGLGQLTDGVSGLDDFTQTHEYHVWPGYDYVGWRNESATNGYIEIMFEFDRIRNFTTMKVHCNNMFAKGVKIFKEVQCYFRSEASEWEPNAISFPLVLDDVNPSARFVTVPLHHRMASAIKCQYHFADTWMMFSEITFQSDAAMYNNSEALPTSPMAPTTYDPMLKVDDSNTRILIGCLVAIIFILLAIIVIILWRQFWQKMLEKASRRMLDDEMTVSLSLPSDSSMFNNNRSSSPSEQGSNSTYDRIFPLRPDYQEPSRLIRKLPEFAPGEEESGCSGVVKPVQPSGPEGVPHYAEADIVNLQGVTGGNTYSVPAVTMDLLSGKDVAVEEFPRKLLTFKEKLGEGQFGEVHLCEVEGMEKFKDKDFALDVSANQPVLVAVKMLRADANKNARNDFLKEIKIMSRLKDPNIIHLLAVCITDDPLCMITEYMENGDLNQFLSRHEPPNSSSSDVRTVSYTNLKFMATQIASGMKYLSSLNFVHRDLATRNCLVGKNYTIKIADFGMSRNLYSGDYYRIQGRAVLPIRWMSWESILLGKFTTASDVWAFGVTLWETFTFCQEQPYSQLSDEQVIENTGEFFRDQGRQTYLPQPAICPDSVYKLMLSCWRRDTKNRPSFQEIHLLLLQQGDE

Where [4] appears, read: read-out: Percent control / Zanubrutinib.
Setting [5] is: read-out: Percent control / Tirabrutinib.
Where [6] appears, read: read-out: Percent control / Ibrutinib.
Setting [7] is: read-out: Percent control / Acalabrutinib.

T1 sequence (Q9UK32 whole entry): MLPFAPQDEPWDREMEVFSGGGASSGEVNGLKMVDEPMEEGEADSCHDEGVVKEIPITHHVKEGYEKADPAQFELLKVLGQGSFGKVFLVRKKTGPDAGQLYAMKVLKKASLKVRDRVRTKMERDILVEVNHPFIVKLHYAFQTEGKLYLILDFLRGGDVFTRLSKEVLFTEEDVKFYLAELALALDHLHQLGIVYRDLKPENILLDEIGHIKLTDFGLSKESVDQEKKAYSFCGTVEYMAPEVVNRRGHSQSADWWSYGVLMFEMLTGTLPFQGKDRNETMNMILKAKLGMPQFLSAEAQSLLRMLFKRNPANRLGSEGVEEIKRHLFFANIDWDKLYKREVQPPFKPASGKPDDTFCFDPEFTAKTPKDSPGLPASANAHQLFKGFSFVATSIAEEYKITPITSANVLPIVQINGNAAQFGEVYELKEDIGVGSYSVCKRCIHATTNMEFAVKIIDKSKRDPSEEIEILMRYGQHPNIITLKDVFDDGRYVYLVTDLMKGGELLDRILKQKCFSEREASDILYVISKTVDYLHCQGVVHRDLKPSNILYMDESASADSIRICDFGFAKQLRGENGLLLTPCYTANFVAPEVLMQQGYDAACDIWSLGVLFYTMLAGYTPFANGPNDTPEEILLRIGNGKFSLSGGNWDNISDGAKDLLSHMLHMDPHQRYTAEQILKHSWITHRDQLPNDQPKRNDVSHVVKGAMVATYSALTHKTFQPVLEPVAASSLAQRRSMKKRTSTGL
CDKL3, sequence (Q8IVW4 whole entry): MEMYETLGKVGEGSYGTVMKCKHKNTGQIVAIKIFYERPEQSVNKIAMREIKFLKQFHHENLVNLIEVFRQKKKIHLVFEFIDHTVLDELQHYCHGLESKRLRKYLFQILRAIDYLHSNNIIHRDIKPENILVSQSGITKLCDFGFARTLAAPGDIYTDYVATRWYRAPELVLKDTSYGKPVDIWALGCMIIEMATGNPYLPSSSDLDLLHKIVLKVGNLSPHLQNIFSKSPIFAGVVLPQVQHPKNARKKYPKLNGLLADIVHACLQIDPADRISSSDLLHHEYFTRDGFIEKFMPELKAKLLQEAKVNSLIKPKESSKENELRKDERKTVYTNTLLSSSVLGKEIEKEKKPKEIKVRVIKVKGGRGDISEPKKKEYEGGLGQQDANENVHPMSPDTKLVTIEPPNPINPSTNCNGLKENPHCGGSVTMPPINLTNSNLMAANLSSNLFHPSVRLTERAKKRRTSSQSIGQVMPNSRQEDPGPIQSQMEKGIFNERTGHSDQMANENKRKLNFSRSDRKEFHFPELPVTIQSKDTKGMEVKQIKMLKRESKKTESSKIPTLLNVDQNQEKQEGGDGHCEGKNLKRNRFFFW
PDGFRA, sequence (P16234 whole entry): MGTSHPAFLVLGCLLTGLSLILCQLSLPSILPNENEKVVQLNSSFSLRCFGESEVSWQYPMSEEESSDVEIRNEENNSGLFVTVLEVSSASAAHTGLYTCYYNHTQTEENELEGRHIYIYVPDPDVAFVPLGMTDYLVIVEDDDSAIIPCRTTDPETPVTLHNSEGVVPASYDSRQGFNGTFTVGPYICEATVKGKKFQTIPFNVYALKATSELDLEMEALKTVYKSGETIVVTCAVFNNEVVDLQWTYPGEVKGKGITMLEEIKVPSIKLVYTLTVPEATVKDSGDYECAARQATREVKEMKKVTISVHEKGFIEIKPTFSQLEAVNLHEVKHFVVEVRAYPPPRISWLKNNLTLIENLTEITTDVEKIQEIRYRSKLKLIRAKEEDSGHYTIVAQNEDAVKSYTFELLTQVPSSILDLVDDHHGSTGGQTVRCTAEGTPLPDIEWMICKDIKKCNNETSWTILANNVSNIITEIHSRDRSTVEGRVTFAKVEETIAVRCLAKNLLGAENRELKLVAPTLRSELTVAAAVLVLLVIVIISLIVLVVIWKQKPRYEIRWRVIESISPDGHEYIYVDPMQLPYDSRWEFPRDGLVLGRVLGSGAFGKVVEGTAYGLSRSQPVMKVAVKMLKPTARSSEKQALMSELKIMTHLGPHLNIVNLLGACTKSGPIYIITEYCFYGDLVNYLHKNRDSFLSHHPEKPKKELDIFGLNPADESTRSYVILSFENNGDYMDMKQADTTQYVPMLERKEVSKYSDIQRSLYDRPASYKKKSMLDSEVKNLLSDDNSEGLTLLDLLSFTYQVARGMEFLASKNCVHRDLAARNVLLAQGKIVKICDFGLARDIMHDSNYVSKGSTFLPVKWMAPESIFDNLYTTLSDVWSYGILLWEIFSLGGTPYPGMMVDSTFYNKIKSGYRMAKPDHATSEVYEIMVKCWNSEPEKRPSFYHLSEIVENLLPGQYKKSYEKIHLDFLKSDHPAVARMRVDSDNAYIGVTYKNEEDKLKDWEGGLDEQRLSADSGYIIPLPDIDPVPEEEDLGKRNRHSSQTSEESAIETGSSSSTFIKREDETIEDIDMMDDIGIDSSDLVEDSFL
EGFR, sequence (P00533 whole entry): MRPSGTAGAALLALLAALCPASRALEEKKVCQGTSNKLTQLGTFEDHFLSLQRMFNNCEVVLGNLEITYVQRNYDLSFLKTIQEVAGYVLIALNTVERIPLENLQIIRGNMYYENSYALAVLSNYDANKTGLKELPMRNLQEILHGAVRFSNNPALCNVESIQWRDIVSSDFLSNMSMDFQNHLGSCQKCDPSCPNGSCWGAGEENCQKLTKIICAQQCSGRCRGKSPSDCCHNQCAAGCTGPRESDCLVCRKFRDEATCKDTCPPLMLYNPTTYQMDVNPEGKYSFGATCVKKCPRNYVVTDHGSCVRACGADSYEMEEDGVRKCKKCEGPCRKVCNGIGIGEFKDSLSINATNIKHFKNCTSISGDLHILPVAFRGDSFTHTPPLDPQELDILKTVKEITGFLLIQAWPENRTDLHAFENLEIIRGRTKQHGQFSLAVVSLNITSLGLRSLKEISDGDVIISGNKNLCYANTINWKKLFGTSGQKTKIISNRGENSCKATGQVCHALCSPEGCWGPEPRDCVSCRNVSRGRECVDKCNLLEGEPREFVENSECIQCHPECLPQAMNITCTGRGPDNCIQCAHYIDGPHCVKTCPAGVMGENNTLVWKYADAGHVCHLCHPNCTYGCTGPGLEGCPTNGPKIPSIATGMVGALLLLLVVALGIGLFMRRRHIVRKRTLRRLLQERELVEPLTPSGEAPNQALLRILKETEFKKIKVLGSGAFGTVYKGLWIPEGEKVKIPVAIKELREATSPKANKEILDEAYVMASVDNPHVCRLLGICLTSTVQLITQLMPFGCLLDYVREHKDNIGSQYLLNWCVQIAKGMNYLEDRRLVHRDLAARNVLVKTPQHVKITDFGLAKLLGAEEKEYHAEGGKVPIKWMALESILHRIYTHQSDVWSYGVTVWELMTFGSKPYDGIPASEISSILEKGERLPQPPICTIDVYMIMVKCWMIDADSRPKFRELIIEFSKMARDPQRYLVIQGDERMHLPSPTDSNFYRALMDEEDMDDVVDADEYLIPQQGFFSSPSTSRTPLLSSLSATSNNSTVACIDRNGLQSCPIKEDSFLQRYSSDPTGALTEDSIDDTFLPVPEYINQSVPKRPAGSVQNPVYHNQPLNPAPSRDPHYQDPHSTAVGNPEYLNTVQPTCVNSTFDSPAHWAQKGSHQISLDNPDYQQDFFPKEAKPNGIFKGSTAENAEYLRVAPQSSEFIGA
CLK2, sequence (P49760 whole entry): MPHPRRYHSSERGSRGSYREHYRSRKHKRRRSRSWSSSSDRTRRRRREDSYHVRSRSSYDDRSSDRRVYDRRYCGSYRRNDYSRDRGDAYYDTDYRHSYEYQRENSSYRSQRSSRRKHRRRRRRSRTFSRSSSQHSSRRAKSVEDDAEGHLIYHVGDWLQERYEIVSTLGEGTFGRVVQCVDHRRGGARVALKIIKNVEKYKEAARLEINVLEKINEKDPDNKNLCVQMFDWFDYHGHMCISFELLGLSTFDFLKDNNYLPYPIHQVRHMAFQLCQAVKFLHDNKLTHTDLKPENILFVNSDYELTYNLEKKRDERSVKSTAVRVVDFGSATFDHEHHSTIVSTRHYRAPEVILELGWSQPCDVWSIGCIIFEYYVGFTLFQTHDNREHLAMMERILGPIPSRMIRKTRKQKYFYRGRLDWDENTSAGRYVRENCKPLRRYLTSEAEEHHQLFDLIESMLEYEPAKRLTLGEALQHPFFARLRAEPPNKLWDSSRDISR
T3 sequence (P04629 whole entry): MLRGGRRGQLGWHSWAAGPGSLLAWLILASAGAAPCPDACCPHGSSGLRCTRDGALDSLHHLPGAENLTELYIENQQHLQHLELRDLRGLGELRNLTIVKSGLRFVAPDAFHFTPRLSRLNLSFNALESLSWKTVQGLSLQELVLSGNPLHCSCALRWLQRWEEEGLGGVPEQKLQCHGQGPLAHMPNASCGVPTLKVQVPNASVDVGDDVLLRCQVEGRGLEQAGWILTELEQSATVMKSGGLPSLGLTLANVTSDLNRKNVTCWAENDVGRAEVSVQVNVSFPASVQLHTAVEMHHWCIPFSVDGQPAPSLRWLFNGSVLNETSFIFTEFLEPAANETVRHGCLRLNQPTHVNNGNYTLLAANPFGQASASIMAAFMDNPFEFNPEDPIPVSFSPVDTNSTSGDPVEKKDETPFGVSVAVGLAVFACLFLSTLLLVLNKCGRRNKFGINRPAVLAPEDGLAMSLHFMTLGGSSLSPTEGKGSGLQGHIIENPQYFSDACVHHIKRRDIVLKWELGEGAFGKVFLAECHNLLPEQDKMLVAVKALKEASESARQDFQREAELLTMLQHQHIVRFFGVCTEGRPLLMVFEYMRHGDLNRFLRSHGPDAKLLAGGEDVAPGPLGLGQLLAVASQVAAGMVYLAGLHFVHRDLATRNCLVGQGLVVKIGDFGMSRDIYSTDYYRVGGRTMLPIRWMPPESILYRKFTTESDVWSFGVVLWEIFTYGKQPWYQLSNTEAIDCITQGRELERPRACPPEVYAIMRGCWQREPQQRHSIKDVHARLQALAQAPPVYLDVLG

`C=CC(=O)N1CCC([C@@H]2CCNc3c(C(N)=O)c(-c4ccc(Oc5ccccc5)cc4)nn32)CC1` [Zanubrutinib]: the remaining binding at 0.3 µM was 92% on CDKL3 (setting [4]); 82% in [1] (setting [4]); 87% on CLK2 (setting [4]); 100% at PDGFRA (setting [4]); 100% on IKK-epsilon (setting [4]); 97% at HIPK3 (setting [4]). The remaining binding at 0.3 µM turned out to be 99% at TRKA (setting [4]), 72% in test [2] (setting [4]) and 92% at RET(M918T) (setting [4]).
For the compound `CC#CC(=O)N1CC[C@@H](n2c(=O)n(-c3ccc(Oc4ccccc4)cc3)c3c(N)ncnc32)C1` [Tirabrutinib], the remaining binding at 0.3 µM was found to be 93% in test [1] (setting [5]); 94% on CLK2 (setting [5]); 95% at PDGFRA (setting [5]); 92% at IKK-epsilon (setting [5]); 78% at HIPK3 (setting [5]); 77% in test [3] (setting [5]). In addition, the remaining binding at 0.3 µM at TRKA (setting [5]) was found to be 83%; in [2] (setting [5]), 92%; at EGFR (setting [5]) it was 100%; at DDR2 (setting [5]), 88%; at RET(M918T) (setting [5]), 91%.
On to `C=CC(=O)N1CCC[C@@H](n2nc(-c3ccc(Oc4ccccc4)cc3)c3c(N)ncnc32)C1` [Ibrutinib], for which the remaining binding at 0.3 µM at CDKL3 (setting [6]) worked out at 98%; at PDGFRA (setting [6]), 96%; at IKK-epsilon (setting [6]), 83%; on HIPK3 (setting [6]) it was 51%; in [3] (setting [6]) it was 42%; on TRKA (setting [6]), 82%. In addition, the figures for the remaining binding at 0.3 µM at EGFR (setting [6]), on DDR2 (setting [6]) and at RET(M918T) (setting [6]) were 0.2%, 80% and 32%, respectively.
As for `CC#CC(=O)N1CCC[C@H]1c1nc(-c2ccc(C(=O)Nc3ccccn3)cc2)c2c(N)nccn12` [Acalabrutinib], the remaining binding at 0.3 µM at CDKL3 (setting [7]) stood at 78%; in test [1] (setting [7]), 95%; on CLK2 (setting [7]), 99%; at IKK-epsilon (setting [7]) it was 76%; at HIPK3 (setting [7]) it was 99%; in test [3] (setting [7]), 81%. Further, the remaining binding at 0.3 µM was determined as 88% at TRKA (setting [7]), 95% in test [2] (setting [7]), 82% at EGFR (setting [7]) and 95% at DDR2 (setting [7]).
